Columns and labels:
[1] = system: ovarian cancer cells (PA-1); experiment: Cancer cell line growth inhibition (SRB assay); type: cell-based; settings: PA-1 ovarian cancer cells, SRB assay; read-out: Cancer Cell Line GI50 Range PA-1
[2] = system: colon cancer cells (HCT116); experiment: Cancer cell line growth inhibition (SRB assay); type: cell-based; settings: Homo sapiens, HCT-116; HCT116 colon cancer cells, SRB assay; read-out: Cancer Cell Line GI50 Range HCT116

Compound | GI50 [1] [nM] | GI50 [2] [nM]
CO[C@@H](C(=O)Nc1ccc2[nH]nc(-c3ccc(O[C@@H]4CCN(C)C[C@@H]4F)cc3)c2c1)c1ccccc1 (relative stereo) [Example A135, (R)-N-(3-(4-(((3S,4R)-3-fluoro-1-methylpiperidin-4-yl)oxy)phenyl)-1H-indazol-5-yl)-2-methoxy-2-phenylacetamide] | 100 to 500 | 100 to 500
CN1CCN(Cc2ccc(-c3n[nH]c4ccc(NC(=O)C(c5ccsc5)N5CCCC5)cc34)cc2)CC1 (stereo not shown) [Example A67, N-(3-(4-((4-methylpiperazin-1-yl)methyl)phenyl)-1H-indazol-5-yl)-2-(pyrrolidin-1-yl)-2-(thiophen-3-yl)acetamide] | – | 100 to 500
O=C(Nc1ccc2[nH]nc(-c3ccc(NC4CCCCC4)cc3)c2c1)C(c1ccsc1)N1CCCC1 (stereo not shown) [Example A68, N-(3-(4-(cyclohexylamino)phenyl)-1H-indazol-5-yl)-2-(pyrrolidin-1-yl)-2-(thiophen-3-yl)acetamide] | – | > 500
O=C(Nc1ccc2[nH]nc(-c3ccc(NC4CCCC4)cc3)c2c1)C(c1ccsc1)N1CCCC1 (stereo not shown) [Example A70, N-(3-(4-(cyclopentylamino)phenyl)-1H-indazol-5-yl)-2-(pyrrolidin-1-yl)-2-(thiophen-3-yl)acetamide] | – | 100 to 500
CN1CCC(Oc2ccc(-c3n[nH]c4ccc(NC(=O)N5CCCc6ccccc65)cc34)cc2)CC1 [Example A73, N-(3-(4-((1-methylpiperidin-4-yl)oxy)phenyl)-1H-indazol-5-yl)-3,4-dihydroquinoline-1(2H)-carboxamide] | – | > 500
CN(c1ccc(-c2n[nH]c3ccc(NC(=O)C(c4ccsc4)N4CCCC4)cc23)cc1)C1CCOCC1 (stereo not shown) [Example A78, N-(3-(4-(methyl(tetrahydro-2H-pyran-4-yl)amino)phenyl)-1H-indazol-5-yl)-2-(pyrrolidin-1-yl)-2-(thiophen-3-yl)acetamide] | – | < 100
O=C(Nc1ccc2[nH]nc(-c3ccc(N4CCOCC4)cc3)c2c1)C(c1cccs1)N1CCCC1 (stereo not shown) [Example A82, N-(3-(4-morpholinophenyl)-1H-indazol-5-yl)-2-(pyrrolidin-1-yl)-2-(thiophen-2-yl)acetamide] | < 100 | < 100
O=C(Nc1ccc2[nH]nc(-c3ccc(N4CCC(O)CC4)cc3)c2c1)C(c1ccsc1)N1CCCCC1 (stereo not shown) [Example A83, N-(3-(4-(4-hydroxypiperidin-1-yl)phenyl)-1H-indazol-5-yl)-2-(piperidin-1-yl)-2-(thiophen-3-yl)acetamide] | 100 to 500 | < 100
O=C(NC(c1ccccc1)C1CC1)c1ccc2[nH]nc(-c3ccc(N4CCC(O)CC4)cc3)c2c1 (stereo not shown) [Example A84, N-(cyclopropyl(phenyl)methyl)-3-(4-(4-hydroxypiperidin-1-yl)phenyl)-1H-indazole-5-carboxamide] | 100 to 500 | < 100
CCc1cccc(CC)c1NC(=O)Nc1ccc2[nH]nc(-c3ccc(N4CCOCC4)cc3)c2c1 [Example A86, 1-(2,6-diethylphenyl)-3-(3-(4-morpholinophenyl)-1H-indazol-5-yl)urea] | 100 to 500 | < 100
COC(C(=O)Nc1ccc2[nH]nc(-c3ccc(N4CCC(O)CC4)cc3)c2c1)c1ccsc1 (stereo not shown) [Example A87, N-(3-(4-(4-hydroxypiperidin-1-yl)phenyl)-1H-indazol-5-yl)-2-methoxy-2-(thiophen-3-yl)acetamide] | 100 to 500 | 100 to 500
CN1CCC(Oc2cccc(-c3n[nH]c4ccc(NC(=O)C(c5ccsc5)N5CCCC5)cc34)c2)CC1 (stereo not shown) [Example A99, N-(3-(3-((1-methylpiperidin-4-yl)oxy)phenyl)-1H-indazol-5-yl)-2-(pyrrolidin-1-yl)-2-(thiophen-3-yl)acetamide] | > 500 | > 500
O=C(NC(c1ccccc1)C1CC1)c1ccc2[nH]nc(-c3ccc(OC4CCN(CCO)CC4)cc3)c2c1 (stereo not shown) [Example A104, N-(cyclopropyl(phenyl)methyl)-3-(4-((1-(2-hydroxyethyl)piperidin-4-yl)oxy)phenyl)-1H-indazole-5-carboxamide] | < 100 | < 100
CN1CCC(Oc2ccc(-c3n[nH]c4ccc(C(=O)NCc5ccccc5CN5CCOCC5)cc34)cc2)CC1 [Example A109, 3-(4-(1-Methylpiperidin-4-yloxy)phenyl)-N-(2-(morpholinomethyl)benzyl)-1H-indazole-5-carboxamide] | 100 to 500 | > 500
CN1CCC(Oc2ccc(-c3n[nH]c4ccc(NC(=O)C(c5ccsc5)N5CCCC5)cc34)cc2N(C)C)CC1 (stereo not shown) [Example A113, N-(3-(3-(dimethylamino)-4-((1-methylpiperidin-4-yl)oxy)phenyl)-1H-indazol-5-yl)-2-(pyrrolidin-1-yl)-2-(thiophen-3-yl)acetamide] | < 100 | < 100

Now from value to compound:

GI50 [1] [nM] | GI50 [2] [nM] | Compound
100 to 500 | 100 to 500 | CN1CCC(Oc2ccc(-c3n[nH]c4ccc(NC(=O)C5CCCc6ccccc65)cc34)cc2)CC1 (stereo not shown) [Example A18]
– | < 100 | CC[C@@H](NC(=O)c1ccc2[nH]nc(-c3ccc(OC4CCN(C)CC4)cc3)c2c1)c1cccs1 [Example A63, (R)-3-(4-((1-methylpiperidin-4-yl)oxy)phenyl)-N-(1-(thiophen-2-yl)propyl)-1H-indazole-5-carboxamide]
– | > 500 | CN1CCC(Oc2ccc(-c3n[nH]c4ccc(C(=O)NCC(C)(C)N5CCOCC5)cc34)cc2)CC1 [Example A74, N-(2-methyl-2-morpholinopropyl)-3-(4-((1-methylpiperidin-4-yl)oxy)phenyl)-1H-indazole-5-carboxamide]
– | 100 to 500 | CN1CCC(Oc2ccc(-c3n[nH]c4ccc(C(=O)NCC(c5ccsc5)N5CCOCC5)cc34)cc2)CC1 (stereo not shown) [Example A75, 3-(4-((1-methylpiperidin-4-yl)oxy)phenyl)-N-(2-morpholino-2-(thiophen-3-yl)ethyl)-1H-indazole-5-carboxamide]
– | < 100 | CN1CCC(Oc2ccc(-c3n[nH]c4ccc(NC(=O)Nc5c(Cl)cccc5Cl)cc34)cc2)CC1 [Example A76, 1-(2,6-dichlorophenyl)-3-(3-(4-((1-methylpiperidin-4-yl)oxy)phenyl)-1H-indazol-5-yl)urea]
– | 100 to 500 | Cc1cc(C)c(NC(=O)Nc2ccc3[nH]nc(-c4ccc(OC5CCN(C)CC5)cc4)c3c2)c(Cl)c1 [Example A77, 1-(2-chloro-4,6-dimethylphenyl)-3-(3-(4-((1-methylpiperidin-4-yl)oxy)phenyl)-1H-indazol-5-yl)urea]
– | < 100 | C[C@H]1CCCN1[C@H](C(=O)Nc1ccc2[nH]nc(-c3ccc(N4CCOCC4)cc3)c2c1)c1cccs1 [Example A79, (R)-2-((S)-2-methylpyrrolidin-1-yl)-N-(3-(4-morpholinophenyl)-1H-indazol-5-yl)-2-(thiophen-2-yl)acetamide]
– | < 100 | CN1CCC(Oc2ccc(-c3n[nH]c4ccc(NC(=O)C(c5ccsc5)N5CCCC5)cc34)cc2N)CC1 (stereo not shown) [Example A80, N-(3-(3-amino-4-((1-methylpiperidin-4-yl)oxy)phenyl)-1H-indazol-5-yl)-2-(pyrrolidin-1-yl)-2-(thiophen-3-yl)acetamide]
< 100 | < 100 | O=C(Nc1ccc2[nH]nc(-c3ccc(N4CCC(O)CC4)cc3)c2c1)C(c1cccs1)N1CCCC1 (stereo not shown) [Example A88, N-(3-(4-(4-hydroxypiperidin-1-yl)phenyl)-1H-indazol-5-yl)-2-(pyrrolidin-1-yl)-2-(thiophen-2-yl)acetamide]
> 500 | 100 to 500 | CN1CCOc2ccc(-c3n[nH]c4ccc(NC(=O)C(c5ccsc5)N5CCCC5)cc34)cc2C1 (stereo not shown) [Example A90, N-(3-(4-methyl-2,3,4,5-tetrahydrobenzo[f][1,4]oxazepin-7-yl)-1H-indazol-5-yl)-2-(pyrrolidin-1-yl)-2-(thiophen-3-yl)acetamide]
> 500 | > 500 | CN1CCN(C)c2ccc(-c3n[nH]c4ccc(NC(=O)C(c5ccsc5)N5CCCC5)cc34)cc2C1 (stereo not shown) [Example A93, N-(3-(1,4-dimethyl-2,3,4,5-tetrahydro-1H-benzo[e][1,4]diazepin-7-yl)-1H-indazol-5-yl)-2-(pyrrolidin-1-yl)-2-(thiophen-3-yl)acetamide]
< 100 | < 100 | O=C(NC(c1ccccc1)C1CCC1)c1ccc2[nH]nc(-c3ccc(N4CCC(O)CC4)cc3)c2c1 (stereo not shown) [Example A100, N-(cyclobutyl(phenyl)methyl)-3-(4-(4-hydroxypiperidin-1-yl)phenyl)-1H-indazole-5-carboxamide]
< 100 | < 100 | O=C(Nc1ccc2[nH]nc(-c3ccc(N4CCC(O)CC4)cc3)c2c1)C(c1ccccc1)C1CC1 (stereo not shown) [Example A103, 2-cyclopropyl-N-(3-(4-(4-hydroxypiperidin-1-yl)phenyl)-1H-indazol-5-yl)-2-phenylacetamide]
100 to 500 | 100 to 500 | COCCN1CCC(Oc2ccc(-c3n[nH]c4ccc(NC(=O)[C@H](OC)c5ccccc5)cc34)cc2)CC1 [Example A107, (R)-2-methoxy-N-(3-(4-((1-(2-methoxyethyl)piperidin-4-yl)oxy)phenyl)-1H-indazol-5-yl)-2-phenylacetamide]
100 to 500 | 100 to 500 | CN1CCC(Oc2ccc(-c3n[nH]c4ccc(C(=O)NCc5ccccc5N5CCOCC5)cc34)cc2)CC1 [Example A108, 3-(4-(1-Methylpiperidin-4-yloxy)phenyl)-N-(2-morpholinobenzyl)-1H-indazole-5-carboxamide]
< 100 | < 100 | CC(C)(O)C1CCN(c2ccc(-c3n[nH]c4ccc(NC(=O)C(c5ccsc5)N5CCCC5)cc34)cc2)CC1 (stereo not shown) [Example A111, N-(3-(4-(4-(2-hydroxypropan-2-yl)piperidin-1-yl)phenyl)-1H-indazol-5-yl)-2-(pyrrolidin-1-yl)-2-(thiophen-3-yl)acetamide]
100 to 500 | 100 to 500 | CC(C)(O)C1CCN(c2ccc(-c3n[nH]c4ccc(C(=O)NC(c5ccccc5)C5CC5)cc34)cc2)CC1 (stereo not shown) [Example A112, N-(cyclopropyl(phenyl)methyl)-3-(4-(4-(2-hydroxypropan-2-yl)piperidin-1-yl)phenyl)-1H-indazole-5-carboxamide]
